According to patent US4426390A, “Novel β-lactam compounds, process for producing thereof, and use thereof as medicines” (Sanraku-Ocean Co., Ltd., priority 1980, dated 1984):
Values after ≈ are worked out from the molar mass of the structure shown. Like-named read-outs stand apart in the source and are kept apart here.

Legend:
[1] = tested on: Citrobacter Freundii GN346; assay: Disc assay of synergy, inhibition zones; assay type: cell-based; conditions: for zone of inhibition at 100 µg/mL: Citrobacter freundii
Protocol: (§1) (B) The presence or absence of synergy is visually checked by the size difference in inhibitory zones observed when the test drug is disc-assayedon an agar plate of a detector microbe and on an agar plate of the detector containing cephaloridine or benzylpenicillin, respectively.
(§2) One loopful of the stock culture of a test organism is inoculated in heat infusion broth (5 ml/tube), and grown at 37° C. for 18 hours. The culture broth is diluted to a final concentration of about 10^5 cells/ml in nutrient agar with or without benzyl penicillin or cephaloridine, and plated in a Petri dish with a diameter of 9 cm, as shown below.
(§3) Using the above-prepared agar plates, antibiotic PS-5 (100 μg/ml), antibiotic OA-6129B2 (5,6-trans OA-6129B) (100 μg/ml), benzylpenicillin (1000 μg/ml) and cephaloridine (1000 μg/ml) are subjected to disc assay.

Proteus vulgaris GN76 [2] = assay: Disc assay of synergy, inhibition zones; assay type: cell-based; conditions: for zone of inhibition at 100 µg/mL: Proteus vulgaris
Protocol: as §1, §2, §3

Enterobacter cloacac 45 = assay: Disc assay of synergy, inhibition zones; assay type: cell-based
Protocol: as §1, §2, §3

Serratia marccscens T55 = assay: Disc assay of synergy, inhibition zones; assay type: cell-based; conditions: for zone of inhibition at 100 µg/mL: Serratia
Protocol: as §1, §2, §3

[3] = tested on: Citrobacter Freundii GN346; assay: Synergistic effect on MIC, microdilution transfer plate technique; assay type: cell-based
Proteus vulgaris GN76 [4] = assay: as above; assay type: cell-based
Ent. cloacae 45 = assay: MIC by agar dilution method; assay type: cell-based; conditions: Enterobacter cloacae, 37° C., 18 hours
Protocol: (§4) The MIC is measured by an agar dilution method based on the standard method of the Japanese Society of Chemotherapy (Japanese Society of Chemotherapy: The Revised Method of Determination of MIC Values, Chemotherapy 22, 1126-1128, […]). Specifically, the antibiotic is serially diluted with a 1/50 M phosphate buffer at a pH of 7.3 to prepare a twofold dilution series. One milliliter of each dilution and 9 ml of an agar medium (Heart Infusion Agar; a product of Difco Laboratories) are mixed and allowed to solidify in a Petri dish having a diameter of 9 cm. One loopful of the stock culture of the test microbe is inoculated in trypto-soy buillon (a product of Eiken Kagaku Co., Ltd.) and incubated at 37° C. for 18 hours. The resulting culture broth is diluted to a concentration of about 10^6 cells/ml with physiological saline and inoculated on the agar plate by means of a microplanter.

Comamonas terrigena B996 = assay: MIC by agar dilution method; assay type: cell-based; conditions: 37° C., 18 hours
Protocol: as §4

[5] = tested on: Staphylococcus aureus 209P; assay: MIC by agar dilution method; assay type: cell-based; conditions: 37° C., 18 hours
Protocol: as §4

[6] = tested on: Citrobacter Freundii GN346; assay: MIC by agar dilution method; assay type: cell-based; conditions: 37° C., 18 hours
Protocol: as §4

Alcaligenes Faecolis A1 = assay: MIC by agar dilution method; assay type: cell-based; conditions: Alcaligenes Faecolis A1; agar dilution, 37° C., 18 hours; read-out: MIC
Protocol: as §4

Ser. marcesceus T55 = assay: MIC by agar dilution method; assay type: cell-based; conditions: 37° C., 18 hours
Protocol: as §4

P. vulgaris GN76 = assay: MIC by agar dilution method; assay type: cell-based; conditions: Proteus vulgaris, 37° C., 18 hours
Protocol: as §4

[7] = tested on: Pseudomonas aenginosa IFO3445; assay: MIC by agar dilution method; assay type: cell-based; conditions: 37° C., 18 hours
Protocol: as §4

[8] = tested on: Klebsiella pneumoniae K13; assay: MIC by agar dilution method; assay type: cell-based; conditions: 37° C., 18 hours
Protocol: as §4

Ent. sp. E8 = assay: MIC by agar dilution method; assay type: cell-based; conditions: Ent. sp. E8; agar dilution, 37° C., 18 hours; read-out: MIC
Protocol: as §4

S. aureus Smith = assay: MIC by agar dilution method; assay type: cell-based; conditions: Staphylococcus aureus, 37° C., 18 hours
Protocol: as §4

Escherichia coli K-12 = assay: MIC by agar dilution method; assay type: cell-based; conditions: K12; Escherichia coli K-12; agar dilution, 37° C., 18 hours; read-out: MIC
Protocol: as §4

S. aureus Russell = assay: MIC by agar dilution method; assay type: cell-based; conditions: Staphylococcus aureus; S. aureus Russell; agar dilution, 37° C., 18 hours; read-out: MIC
Protocol: as §4

Proteus mirabilis P6 = assay: MIC by agar dilution method; assay type: cell-based; conditions: Proteus mirabilis P6; agar dilution, 37° C., 18 hours; read-out: MIC
Protocol: as §4

Serratia marcesceus S18 = assay: MIC by agar dilution method; assay type: cell-based; conditions: 37° C., 18 hours
Protocol: as §4

Ps. aeruginosa NCTC10490 = assay: MIC by agar dilution method; assay type: cell-based; conditions: Pseudomonas aeruginosa, 37° C., 18 hours
Protocol: as §4

Sarcina lutea S19 = assay: MIC by agar dilution method; assay type: cell-based; conditions: Micrococcus luteus, 37° C., 18 hours
Protocol: as §4

[9] = tested on: Bacillus subtillis ATCC 6633; assay: MIC by agar dilution method; assay type: cell-based; conditions: ATCC6633; Bacillus subtillis ATCC 6633; agar dilution, 37° C., 18 hours; read-out: MIC
Protocol: as §4

P. rettgeri P7 = assay: MIC by agar dilution method; assay type: cell-based; conditions: Providencia rettgeri; P. rettgeri P7; agar dilution, 37° C., 18 hours; read-out: MIC
Protocol: as §4

Providencia sp. P8 = assay: MIC by agar dilution method; assay type: cell-based; conditions: Providencia sp. P8; agar dilution, 37° C., 18 hours; read-out: MIC
Protocol: as §4

S. epidermidis = assay: MIC by agar dilution method; assay type: cell-based; conditions: Staphylococcus epidermidis, 37° C., 18 hours
Protocol: as §4

[10] = tested on: Enterobacter aerogenes E19; assay: MIC by agar dilution method; assay type: cell-based; conditions: Klebsiella aerogenes, 37° C., 18 hours
Protocol: as §4

E. coli RGN823 = assay: MIC by agar dilution method; assay type: cell-based; conditions: Escherichia coli, 37° C., 18 hours
Protocol: as §4

[11] = Stability (half life) in phosphate buffers of various pH; assay type: physicochemical; conditions: 28° C.
Protocol: By adding 2% sodium hydroxide or 10% hydrochloric acid, the pH of 0.05 M phosphate buffer is adjusted to 4, 5, 6, 7, 8 and 9, respectively, and distributed into test tubes in an amount of 3 ml. Concentrated solution of antibiotic OA-6129A (0.05 ml) is added to each test tube and allowed to stand in a thermostatic chamber of 28° C. The time course curve of the concentration decrease of antibiotic OA-6129A is drawn by spectrophotometric measurement at 300 nm, from which the half life of the antibiotic at the indicated pH is calculated. As a control, antibiotic PS-5, a carbapenem compound described in the above-cited reference is simultaneously tested.

[12] = plate: + CER, disc OA-6129B2, PS-5 100 μg/ml, CER, PCG 1000 μg/ml
[13] = plate: + PCG, disc OA-6129B2, PS-5 100 μg/ml, CER, PCG 1000 μg/ml
[14] = plate: + PCG, reduced to 5 μg/ml (final concentration), disc OA-6129B2, PS-5 100 μg/ml, CER, PCG 1000 μg/ml
[15] = plate: None, disc OA-6129B2, PS-5 100 μg/ml, CER, PCG 1000 μg/ml

## O=C(Cc1cccs1)N[C@@H]1C(=O)N2C(C(=O)[O-])=C(C[n+]3ccccc3)CS[C@H]12 [CER, Cephaloridine]
[1]; GN346, read-out: diameter of inhibition zones
  zone of inhibition at 100 µg/mL: 0 mm
[1]; [12]
  diameter of inhibition zones: 0 mm
[1]; [13]
  diameter of inhibition zones: 0 mm
Proteus vulgaris GN76 [2]; GN76, read-out: diameter of inhibition zones
  zone of inhibition at 100 µg/mL: 0 mm
Proteus vulgaris GN76 [2]; [12]
  diameter of inhibition zones: 0 mm
Proteus vulgaris GN76 [2]; [13]
  diameter of inhibition zones: 0 mm
Enterobacter cloacac 45; Enterobacter, 45, read-out: diameter of inhibition zones
  zone of inhibition at 100 µg/mL: 0 mm
Enterobacter cloacac 45; [12]
  diameter of inhibition zones: 0 mm
Enterobacter cloacac 45; [13]
  diameter of inhibition zones: 0 mm
Serratia marccscens T55; T55, read-out: diameter of inhibition zones
  zone of inhibition at 100 µg/mL: 0 mm
Serratia marccscens T55; [12]
  diameter of inhibition zones: 0 mm
Serratia marccscens T55; [14]
  diameter of inhibition zones: 0 mm
[3]; with OA-6129A 1.56 μg/ml
  MIC of CER in combination: 1250 µg/mL
[3]; with OA-6129A 6.25 μg/ml
  MIC of CER in combination: 313 µg/mL
[3]; with OA-6129A 25 μg/ml
  MIC of CER in combination: < 5 µg/mL
[3]; with OA-6129A 50 μg/ml
  MIC of CER in combination: < 5 µg/mL
Proteus vulgaris GN76 [4]; Proteus vulgaris, GN76, alone, heart infusion broth, 10^5 cells/ml
  MIC: 1250 µg/mL
Proteus vulgaris GN76 [4]; with OA-6129A 1.56 μg/ml
  MIC of CER in combination: 313 µg/mL
Proteus vulgaris GN76 [4]; with OA-6129A 6.25 μg/ml
  MIC of CER in combination: 39 µg/mL
Proteus vulgaris GN76 [4]; with OA-6129A 25 μg/ml
  MIC of CER in combination: < 5 µg/mL
Proteus vulgaris GN76 [4]; with OA-6129A 50 μg/ml
  MIC of CER in combination: < 5 µg/mL

## CC1(C)S[C@@H]2[C@H](NC(=O)Cc3ccccc3)C(=O)N2[C@H]1C(=O)O [PCG, benzylpenicillin]
[1]; [12]
  diameter of inhibition zones: 0 mm
[1]; [13]
  diameter of inhibition zones: 0 mm
[1]; [15]
  diameter of inhibition zones: 0 mm
Proteus vulgaris GN76 [2]; [12]
  diameter of inhibition zones: 0 mm
Proteus vulgaris GN76 [2]; [13]
  diameter of inhibition zones: 0 mm
Proteus vulgaris GN76 [2]; [15]
  diameter of inhibition zones: 0 mm
Enterobacter cloacac 45; [12]
  diameter of inhibition zones: 0 mm
Enterobacter cloacac 45; [13]
  diameter of inhibition zones: 0 mm
Enterobacter cloacac 45; [15]
  diameter of inhibition zones: 0 mm
Serratia marccscens T55; [12]
  diameter of inhibition zones: 0 mm
Serratia marccscens T55; [14]
  diameter of inhibition zones: tr.
Serratia marccscens T55; [15]
  diameter of inhibition zones: tr.

## CCC1C(=O)N2C(C(=O)O)=C(SCCNC(C)=O)CC12 (centres unmarked) [PS-5, reference compound]
Ent. cloacae 45
  MIC: 3.13 µg/mL (≈ 10.5 µM)
Comamonas terrigena B996
  MIC: 0.012 µg/mL (≈ 0.0402 µM)
[5]
  MIC: 0.024 µg/mL (≈ 0.0804 µM)
[6]
  MIC: 3.13 µg/mL (≈ 10.5 µM)
Alcaligenes Faecolis A1
  MIC: 0.78 µg/mL (≈ 2.61 µM)
Ser. marcesceus T55
  MIC: 6.25 µg/mL (≈ 20.9 µM)
P. vulgaris GN76
  MIC: 6.25 µg/mL (≈ 20.9 µM)
[7]
  MIC: 12.5 µg/mL (≈ 41.9 µM)
[8]
  MIC: 3.13 µg/mL (≈ 10.5 µM)
Ent. sp. E8
  MIC: 3.13 µg/mL (≈ 10.5 µM)
S. aureus Smith
  MIC: 0.2 µg/mL (≈ 0.67 µM)
Escherichia coli K-12
  MIC: 1.56 µg/mL (≈ 5.23 µM)
S. aureus Russell
  MIC: 0.2 µg/mL (≈ 0.67 µM)
Proteus mirabilis P6
  MIC: 6.25 µg/mL (≈ 20.9 µM)
Serratia marcesceus S18
  MIC: 3.13 µg/mL (≈ 10.5 µM)
Ps. aeruginosa NCTC10490
  MIC: 12.5 µg/mL (≈ 41.9 µM)
Sarcina lutea S19
  MIC: 0.1 µg/mL (≈ 0.335 µM)
[9]
  MIC: 0.1 µg/mL (≈ 0.335 µM)
P. rettgeri P7
  MIC: 3.13 µg/mL (≈ 10.5 µM)
Providencia sp. P8
  MIC: 3.13 µg/mL (≈ 10.5 µM)
S. epidermidis
  MIC: 0.2 µg/mL (≈ 0.67 µM)
[10]
  MIC: 3.13 µg/mL (≈ 10.5 µM)
E. coli RGN823
  MIC: 3.13 µg/mL (≈ 10.5 µM)
[1]; GN346, plate: None, disc OA-6129B2, PS-5 100 μg/ml, CER, PCG 1000 μg/ml, read-out: diameter of inhibition zones
  zone of inhibition at 100 µg/mL: 22.5 mm
[1]; [12]
  diameter of inhibition zones: 24.0 mm
[1]; [13]
  diameter of inhibition zones: 23.5 mm
Proteus vulgaris GN76 [2]; GN76, plate: None, disc OA-6129B2, PS-5 100 μg/ml, CER, PCG 1000 μg/ml, read-out: diameter of inhibition zones
  zone of inhibition at 100 µg/mL: 17.5 mm
Proteus vulgaris GN76 [2]; [12]
  diameter of inhibition zones: 23.5 mm
Proteus vulgaris GN76 [2]; [13]
  diameter of inhibition zones: 25.0 mm
Enterobacter cloacac 45; Enterobacter, 45, plate: None, disc OA-6129B2, PS-5 100 μg/ml, CER, PCG 1000 μg/ml, read-out: diameter of inhibition zones
  zone of inhibition at 100 µg/mL: 20 mm
Enterobacter cloacac 45; [12]
  diameter of inhibition zones: 22.5 mm
Enterobacter cloacac 45; [13]
  diameter of inhibition zones: 21.0 mm
Serratia marccscens T55; T55, plate: None, disc OA-6129B2, PS-5 100 μg/ml, CER, PCG 1000 μg/ml, read-out: diameter of inhibition zones
  zone of inhibition at 100 µg/mL: 23.5 mm
Serratia marccscens T55; [12]
  diameter of inhibition zones: 34.0 mm
Serratia marccscens T55; [14]
  diameter of inhibition zones: 24.0 mm
[11]; pH 4, 0.05 M phosphate buffer
  half-life: 0.2 h
[11]; pH 5, 0.05 M phosphate buffer
  half-life: 3.43 h
[11]; pH 6, 0.05 M phosphate buffer
  half-life: 13.2 h
[11]; pH 7, 0.05 M phosphate buffer
  half-life: 38.2 h
[11]; pH 8, 0.05 M phosphate buffer
  half-life: 78 h
[11]; pH 9, 0.05 M phosphate buffer
  half-life: 36.2 h
